Measured values published in BindingDB's records for doi:10.1021/jm970333f (University of Catania, 1998).

Experiment: Inhibition of [3H]pentazocine binding to sigma-1 sites in guinea pig brain membranes

Row | SMILES | Ki [nM]
1 | C[C@@H]1[C@@H]2Cc3ccc(O)cc3[C@]1(C)CCN2CCN1CCCCCC1 [(2S,6R,11S)-3-(2-Azepan-1-yl-ethyl)-6,11-dimethyl-1,2,3,4,5,6-hexahydro-2,6-methano-benzo[d]azocin-8-ol] | 20
2 | C[C@@H]1[C@@H]2Cc3ccc(O)cc3[C@]1(C)CCN2CCNCc1ccccc1 [(2S,6R,11S)-3-(2-Benzylamino-ethyl)-6,11-dimethyl-1,2,3,4,5,6-hexahydro-2,6-methano-benzo[d]azocin-8-ol] | 30
3 | C[C@@H]1[C@@H]2Cc3ccc(O)cc3[C@]1(C)CCN2CCNC1CCCCC1 [(2S,6R,11S)-3-(2-Cyclohexylamino-ethyl)-6,11-dimethyl-1,2,3,4,5,6-hexahydro-2,6-methano-benzo[d]azocin-8-ol] | 42
4 | CCN(CC)CCN1CC[C@@]2(C)c3cc(O)ccc3C[C@H]1[C@H]2C [(2S,6R,11S)-3-(2-Diethylamino-ethyl)-6,11-dimethyl-1,2,3,4,5,6-hexahydro-2,6-methano-benzo[d]azocin-8-ol] | 15
5 | C[C@@H]1[C@@H]2Cc3ccc(O)cc3[C@]1(C)CCN2CCN(C)C [(2S,6R,11S)-3-(2-Dimethylamino-ethyl)-6,11-dimethyl-1,2,3,4,5,6-hexahydro-2,6-methano-benzo[d]azocin-8-ol] | 20
6 | CCN(CCN1CC[C@@]2(C)c3cc(O)ccc3C[C@H]1[C@H]2C)c1ccccc1 [(2S,6R,11S)-3-[2-(Ethyl-phenyl-amino)-ethyl]-6,11-dimethyl-1,2,3,4,5,6-hexahydro-2,6-methano-benzo[d]azocin-8-ol] | 42
7 | C[C@@H]1[C@@H]2Cc3ccc(O)cc3[C@]1(C)CCN2CCN1CCOCC1 [(2S,6R,11S)-6,11-Dimethyl-3-(2-morpholin-4-yl-ethyl)-1,2,3,4,5,6-hexahydro-2,6-methano-benzo[d]azocin-8-ol] | 13
8 | C[C@@H]1[C@@H]2Cc3ccc(O)cc3[C@]1(C)CCN2CCNc1ccccc1 [(2S,6R,11S)-6,11-Dimethyl-3-(2-phenylamino-ethyl)-1,2,3,4,5,6-hexahydro-2,6-methano-benzo[d]azocin-8-ol] | 5.9
9 | C[C@@H]1[C@@H]2Cc3ccc(O)cc3[C@]1(C)CCN2CCN1CCCCC1 [(2S,6R,11S)-6,11-Dimethyl-3-(2-piperidin-1-yl-ethyl)-1,2,3,4,5,6-hexahydro-2,6-methano-benzo[d]azocin-8-ol] | 9.6
10 | C[C@@H]1[C@@H]2Cc3ccc(O)cc3[C@]1(C)CCN2CCN1CCCC1 [(2S,6R,11S)-6,11-Dimethyl-3-(2-pyrrolidin-1-yl-ethyl)-1,2,3,4,5,6-hexahydro-2,6-methano-benzo[d]azocin-8-ol] | 7.4
11 | C[C@@H]1[C@@H]2Cc3ccc(O)cc3[C@]1(C)CCN2CCN(C)c1ccccc1 [(2S,6R,11S)-6,11-Dimethyl-3-[2-(methyl-phenyl-amino)-ethyl]-1,2,3,4,5,6-hexahydro-2,6-methano-benzo[d]azocin-8-ol] | 5.6
12 | C=CCN1CCC2c3cc(O)ccc3CC1C2C (configuration not stated) [SK&F-10047] | 169
